Results: ChEMBL document CHEMBL1148049, “Antimitotic and cytotoxic flavonols from Zieridium pseudobtusifolium and Acronychia porteri” (J Nat Prod, 1994)
In brackets after ≈: the same amount, converted by molar mass.

System: KB
Experiment: Cytotoxicity against human KB cells
Format: functional, cell-based
In the case of `COc1cc(-c2oc3c(OC)c(OC)c(OC)c(O)c3c(=O)c2OC)cc(O)c1OC` [DIGICITRIN], the IC50 is reported as 2 µg/mL (≈ 4.6 µM). With `COc1c(OC)c(O)c2c(=O)c(OC)c(-c3ccc(O)c(O)c3)oc2c1OC` the IC50 was 0.44 µg/mL (≈ 1.13 µM). For `COc1ccc(-c2oc3c(OC)c(OC)c(OC)c(O)c3c(=O)c2O)cc1OC`, the IC50 was 0.1 µg/mL (≈ 0.247 µM). For `COc1ccc(-c2oc3cc(O)c(OC)c(O)c3c(=O)c2OC)cc1O` [CENTAUREIDIN], the IC50 was 0.27 µg/mL (≈ 0.749 µM). With `COc1ccc(-c2oc3c(OC)c(OC)c(OC)c(O)c3c(=O)c2OC)cc1O` the IC50 was 0.04 µg/mL (≈ 0.0989 µM). For `COc1cc(-c2oc3c(OC)c(OC)c(OC)c(O)c3c(=O)c2O)cc(O)c1OC`, the IC50 was 2 µg/mL (≈ 4.76 µM). `COc1cc(-c2oc3c(OC)c(OC)c(OC)c(O)c3c(=O)c2OC)ccc1O` showed an IC50 of 0.2 µg/mL (≈ 0.495 µM). For `COc1ccc(-c2oc3c(OC)c(OC)c(OC)c(O)c3c(=O)c2O)cc1O`, the IC50 was 6 µg/mL (≈ 15.4 µM). In the case of `COc1ccc(-c2oc3c(OC)c(OC)c(OC)c(O)c3c(=O)c2OC)cc1OC`, the IC50 is reported as 6 µg/mL (≈ 14.3 µM).

System: not listed separately
Experiment: Inhibition of tubulin assembly
Molecule `COc1ccc(-c2oc3cc(O)c(OC)c(O)c3c(=O)c2OC)cc1O` [CENTAUREIDIN] has an IC50 of 3 µM. In the case of `COc1ccc(-c2oc3c(OC)c(OC)c(OC)c(O)c3c(=O)c2OC)cc1O`, the IC50 is reported as 12 µM. `CC[C@]1(O)C[C@@H]2CN(CCc3c([nH]c4ccccc34)[C@@](C(=O)OC)(c3cc4c(cc3OC)N(C)[C@H]3[C@@](O)(C(=O)OC)[C@H](OC(C)=O)[C@]5(CC)C=CCN6CC[C@]43[C@@H]65)C2)C1` [VINBLASTINE] gave an IC50 of 4 µM.
